Measured values: patent publication US20230107216A1, “PANTETHEINE DERIVATIVES AND USES THEREOF” (Comet Therapeutics, Inc., priority 2018, published 2023)
Where two headings read alike, the source gives them in different places.

Legend:
Format in all cases: cell-based
HepG2 cells [1] = experiment: Glucose uptake (Glucose Uptake-Glo); settings: Homo sapiens, read-out: % increase in Glucose Uptake
[2] = system: Methylmalonic Acidemia (MMA) primary fibroblasts Tsi 5224; experiment: Mitochondrial respiration, XFe96 Extracellular Flux Analyzer (OCR/ECAR), MMA fibroblasts Tsi 5224; settings: Homo sapiens, Fibroblast, MMA Tsi 5224, assay condition A (10 mM glucose, 2 mM L-glutamine, 1 mM pyruvate, 10% FBS), read-out: Increase in Maximal Respiratory Capacity AUC;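 further: relative to vehicle DMSO control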
Procedure: The effect of the compounds of the present disclosure on mitochondrial respiration was measured with a XFe96 Extracellular Flux Analyzer (Seahorse Bioscience, Agilent Technologies) and Oxygen consumption Rate (OCR) and Extracellular acidification rate (ECAR) determined.
Cell culture and treatments. Primary adherent fibroblasts were cultured in minimum essential medium (MEM) (Gibco, 25030081) supplemented with 2 mM L-Glutamine (Gibco, 25030081), 15% fetal bovine serum (FBS) (Gibco, 26400044) and 1% penicillin/streptomycin (Gibco, 5140122) at 37° C. and 5% CO2. Cells were collected for either passaging or experiment at ˜70-80% confluence. Cells were obtained by trypsinization and seeded at 20000 cells/well in cell culture microplates (Seahorse Bioscience, 101085-004) and allowed to adhere for 16 hours in culture media.
By profiling different primary cells and/or optimizing their culture media or environmental components one can select cell lines and/or conditions that are appropriate for the biological or disease model. In the present example, 24 hours prior to OCR and ECAR profiling, media was changed to Dulbecco's Modified Eagle Medium (DMEM, Agilent Seahorse 103575-100) with the appropriate supplements for the different primary cells (10 mM glucose, 2 mM L-glutamine, 1 mM pyruvate, 10% FBS; 1 mM glucose, 2 mM L-glutamine, 1 mM pyruvate, 10% FBS; 10 mM glucose, 10% FBS; 5 mM glucose 10% FBS; 1 mM glucose 10% FBS). Cells used in this example were: Propionic Acidemia (PA) (GM00371, GM03590 Coriell Institute for Medical Research, Tsi 6337, Tsi 4626, Tsi 3618 Trans-Hit Bio), Methylmalonic Acidemia (MMA) (GM01673, Coriell Institute for Medical Research, Tsi 5224 Trans-Hit Bio), Branched chain ketoacid dehydrogenase kinase (BCKDK) (GM00612, GM00649 Coriell Institute for Medical Research), Subnormal activation of pyruvate dehydrogenase complex (PDH) (GM01503 Coriell Institute for Medical Research), Very long-chain acyl-CoA dehydrogenase (VLCAD) (GM17475), Leigh Syndrome (LS) (GM03672, GM13411 Coriell Institute for Medical Research), Pyruvate Carboxylase Deficiency (PC) (GM00444 Coriell Institute for Medical Research), Glutaric Acidemia-I (GA) (GM10653), Friedreich's Ataxia (FXN) (GM04078 Coriell Institute for Medical Research, Huntington's disease (HD) (GM21756 Coriell Institute for Medical Research), Ornithine Transcarbamylase Deficiency (OTC) (GM12756 Coriell Institute for Medical Research), Kearns-Sayre Syndrome (KSS) (GM06225 Coriell Institute for Medical Research).
One hour before the assay, the cells were washed with freshly prepared unbuffered serum free-Seahorse XF Assay medium (Seahorse Bioscience, North America, USA, 103575-100) with the same supplements as for the previous 24 hour incubation.
After baseline measurements of OCR, cells were challenged with compounds of the present disclosure at different concentrations (10 to 50 μM) or vehicle (DMSO, 0.1%) and a post-compound baseline was recorded. OCR was measured after sequentially adding to each well 1 μg/ml oligomycin (inhibitor of ATP synthase Sigma-Aldrich, 753531), then maximal OCR was determined with carbonyl cyanide 4-(trifluoromethoxy) phenylhydrazone (FCCP, Sigma-Aldrich, C2920), (uncoupler of oxidative phosphorylation) and 0.5 μM of rotenone (Sigma-Aldrich, R8875) plus antimycin A (Sigma-Aldrich, A8674) (inhibitors of mitochondrial complex I and III) for determination of rotenone-antimycin insensitive respiration together with Hoechst for nuclear staining in situ when normalized to cell counts. After the analysis and nuclear staining, the XFp microplate was transferred to the Cytation 5, and the nuclear images were captured, the individual nuclei were identified and counted by BioTek Gen5 software. Data were expressed as pmol of O2 per minute and normalized by nuclear staining and baselined to pre-compound addition.
Assay conditions were as stated below.
Assay specifics on assay conditions are indicated below when readouts were normalized to cell counts. […]

[3] = system: Propionic Acidemia (PA) primary fibroblasts GM00371; experiment: Mitochondrial respiration, XFe96 Extracellular Flux Analyzer (OCR/ECAR), PA fibroblasts GM00371; settings: Homo sapiens, Fibroblast
HepG2 cells [4] = experiment: Mitochondrial membrane potential (MITO-ID MP detection Kit); settings: Homo sapiens, 168 h, 50 uM, 7 days, read-out: % decrease in Mitochondrial Membrane Potential
Procedure: HepG2 cells (ATCC, HB-8065) were cultured (5% CO2 at 37° C.) and plated in Poly-D-Lysine 384-Well plate (Corning, 356663) at a density of 160000 cells/mL in 50 μL/well. Culture and assay media consisted of DMEM (Gibco, 11995-065) supplemented with 1% Penicillin-Streptomycin and 10% FBS (Hyclone, SV30087.03).
MITO-ID® MP detection Kit (ENZ-51018) was used and manufacturer instructions followed. Cells were allowed to settle for 30 min at room temperature and further incubated overnight (37° C. and 5% CO2) for adherence. Next day, test compounds (50-10 μM) and vehicle DMSO (0.2%) were added at the recommended volumes to the 384-well plate for 7 days without media change using a Tecan compound dispenser. All the solutions and wash buffers were prepared and dispensed according to manufacturer's volumes for a 384-well plate format.

Structure (SMILES)	activation at 50 µM (HepG2 cells [1])	activation at 10 µM (HepG2 cells [1])	also measured
CC(=O)OCC(C)(C)[C@@H](O)C(=O)NCCC(=O)NCCSC(=O)/C=C/C(=O)O [Compound 144, (2E)-4-[(2-[3-[(2R)-4-(acetyloxy)-2-hydroxy-3,3-dimethylbutanamido]propanamido]ethyl)sulfanyl]-4-oxobut-2-enoic acid]	≥ 30%		
CC(=O)SCCNC(=O)CCNC(=O)[C@H](O)C(C)(C)COC(=O)O[C@H](CC(=O)[O-])C[N+](C)(C)C [Compound 183, (12R,18R)-12-hydroxy-13,13-dimethyl-2,7,11,16-tetraoxo-18-((trimethylammonio)methyl)-15,17-dioxa-3-thia-6,10-diazaicosan-20-oate]		≥ 30%	activation at 10 µM [2]: ≥ 10%
CC(=O)O[C@@H](C(=O)NCCC(=O)NCCSC(=O)CCC(=O)O)C(C)(C)CO [Compound 211, 4-[(2-[3-[(2R)-2-(acetyloxy)-4-hydroxy-3,3-dimethylbutanamido]propanamido]ethyl)sulfanyl]-4-oxobutanoic acid]	≥ 30%		
COC(=O)CCC(=O)SCCNC(=O)CCNC(=O)[C@H](OC(C)=O)C(C)(C)COC(C)=O [Compound 214, methyl 4-[(2-[3-[(2R)-2,4-bis(acetyloxy)-3,3-dimethylbutanamido]propanamido]ethyl)sulfanyl]-4-oxobutanoate]		≥ 20%	activation at 50 µM ([3]; assay condition A (10 mM glucose, 2 mM L-glutamine, 1 mM pyruvate, 10% FBS), read-out: Increase in Spare Capacity AUC): ≥ 50%; activation at 50 µM ([3]; assay condition D (1 mM glucose, 10% FBS), read-out: Increase in Spare Capacity AUC): ≥ 10%
CC(C(=O)O)C(=O)SCCNC(=O)CCNC(=O)[C@H](O)C(C)(C)CO (stereo partly shown) [Compound 393]		≥ 30%	activation at 10 µM [2]: ≥ 10%
CC(=O)SCCNC(=O)CCNC(=O)[C@H](O)C(C)(C)COC(=O)OCC[N+](C)(C)C [Compound 503, [2-([[(3R)-3-[(2-[[2-(acetylsulfanyl)ethyl]carbamoyl]ethyl)carbamoyl]-3-hydroxy-2,2-dimethylpropoxy]carbonyl]oxy)ethyl]trimethylazanium]	≥ 20%		activation at 50 µM ([3]; assay condition A (10 mM glucose, 2 mM L-glutamine, 1 mM pyruvate, 10% FBS), read-out: Increase in Maximal Respiratory Capacity AUC): ≥ 10%
CC(=O)SCCNC(=O)CCNC(=O)[C@H](O)C(C)(C)CO [Compound 1241, (R)—S-(2-(3-(2,4-dihydroxy-3,3-dimethylbutanamido)propanamido)ethyl) ethanethioate]		≥ 30%	
C[C@H](O)CC(=O)SCCNC(=O)CCNC(=O)[C@H](O)C(C)(C)CO [Compound 1246, (2R)-2,4-dihydroxy-N-{2-[(2-{[(3S)-3-hydroxybutanoyl]sulfanyl}ethyl)carbamoyl]ethyl}-3,3-dimethylbutanamide]			inhibition at 50 µM (HepG2 cells [4]): > 50%
CC(=O)OCC(C)(C)[C@@H](OC(C)=O)C(=O)NCCC(=O)NCCS [Compound 1263, (1R)-3-(acetyloxy)-2,2-dimethyl-1-([2-[(2-sulfanylethyl)carbamoyl]ethyl]carbamoyl)propyl acetate]	≥ 30%		
COC(=O)CCC1(CC(=O)SCCNC(=O)CCNC(=O)[C@H](O)C(C)(C)COC(C)=O)OCC(C)(C)CO1 [Compound 1268, methyl 3-(2-[2-[(2-[3-[(2R)-4-(acetyloxy)-2-hydroxy-3,3-dimethylbu-tanamido]propanamido]ethyl)sulfanyl]-2-oxoethyl]-5,5-dimethyl-1,3-dioxan-2-yl)propanoate]	≥ 30%		
CCC(=O)OCC(C)(C)[C@@H](O)C(=O)NCCC(=O)NCCSSCCNC(=O)CCNC(=O)[C@H](O)C(C)(C)COC(=O)CC [Compound 1271, (3R)-3-hydroxy-3-[[2-([2-[(2-[3-[(2R)-2-hydroxy-3,3-dimethyl-4-(propanoyloxy)butanamido]propanamido]ethyl)disulfanyl]ethyl]carbamoyl)ethyl]carbamoyl]-2,2-dimethylpropyl propanoate]		≥ 10%	
CC(C)(C)OC(=O)NCC(=O)OCC(C)(C)[C@@H](O)C(=O)NCCC(=O)NCCS [Compound 1274, (3R)-3-hydroxy-2,2-dimethyl-3-([2-[(2-sulfanylethyl)carbamoyl]ethyl]carbamoyl)propyl 2-[(tert-butoxycarbonyl)amino]acetate]	≥ 30%		
CC(=O)SCCNC(=O)CCNC(=O)[C@H](O)C(C)(C)COC(=O)CNC(=O)OC(C)(C)C [Compound 1275, (3R)-3-[(2-[[2-(acetylsulfanyl)ethyl]carbamoyl]ethyl)carbamoyl]-3-hydroxy-2,2-dimethylpropyl 2-[(tert-butoxycarbonyl)amino]acetate]		≥ 20%	
C[C@H](NC(=O)OC(C)(C)C)C(=O)OCC(C)(C)[C@@H](O)C(=O)NCCC(=O)NCCSSCCNC(=O)CCNC(=O)[C@H](O)C(C)(C)COC(=O)[C@H](C)NC(=O)OC(C)(C)C [Compound 1277, (3R)-3-[[2-([2-[(2-[3-[(2R)-4-[[(2S)-2-[(tert-butoxycarbonyl)amino]propanoyl]oxy]-2-hydroxy-3,3-dimethylbutanamido]propanamido]ethyl)disulfanyl]ethyl]carbamoyl)ethyl]carbamoyl]-3-hydroxy-2,2-dimethylpropyl (2S)-2-[(tert-butoxycarbonyl)amino]propanoate]		≥ 10%	
C[C@H](NC(=O)OC(C)(C)C)C(=O)OCC(C)(C)[C@@H](O)C(=O)NCCC(=O)NCCS [Compound 1278, (3R)-3-hydroxy-2,2-dimethyl-3-([2-[(2-sulfanylethyl)carbamoyl]ethyl]carbamoyl)propyl (2S)-2-[(tert-butoxycarbonyl)amino]propanoate]		≥ 30%	
CC(=O)NCC(=O)O[C@@H](C(=O)NCCC(=O)NCCSC(=O)CCC(=O)O)C(C)(C)CO [Compound 1296, 4-[(2-[3-[(2R)-2-[(2-acetamidoacetyl)oxy]-4-hydroxy-3,3-dimethylbutanamido]propanamido]ethyl)sulfanyl]-4-oxobutanoic acid]		≥ 10%	activation at 10 µM ([3]; assay condition D (1 mM glucose, 10% FBS), 10 μM, read-out: Increase in Spare Capacity AUC): ≥ 30%
